Test results taken from patent US20230192764A1, “NOVEL DOPAMINE PRECURSORS” (Yissum Research Development Company of the Hebrew …, priority 2018, published 2023).
Values joined by “and” are separate entries in the source; they are usually repeats but may differ in a detail not shown here. Identical values can stand only once.

What was measured:
[1] = test system: Rotenone -induced model of Parkinson's disease (PD) in rats; assay: Rotarod behavior assay, rotenone model; format: in vivo, Sprague Dawley rats; settings: for R.R (rotarod): individual rat, listed as SDA
Method: 1-SD (Rotenone + SD); 2 - SDA (Rotenone + SDA); 3 - Control (Rotenone); 4 -Naive. The experimental groups were comprised of 6 animals for treated groups (1-3) and 2 animals in naive group (4). Rotenone was administrated 3.0 mg/kg intraperitoneally (IP) once a day in the morning (days 1-9). SD 33 mg/kg and SDA 33 mg/kg were administrated intraperitoneally once a day in the afternoon (days 1-9).
Rearing behavior, rotarod and beam walk tests were performed before initiation of treatment (day 0) as well as on days 4, 8 and 10 of the experiment.
IP administration: Rotenone was administrated to groups 1-3. Rotenone was injected intraperitoneally at a dose 3.0 mg/kg once a day in the morning (days 1-9). SD and SDA was administrated both at a dose of 33 mg/kg and were injected intraperitoneally once a day in the afternoon (days 1-9). Group number 4 was untreated, and remained as a naive group.
The test was used to evaluate motor coordination and balance. Apparatus was set to accelerate from 4 to 40 rpm in 300 s, and animals from same cage are placed in separate lanes on rod initially rotating at 4 rpm.

ERK1/2 phosphorylation = assay: AuF-induced phosphorylation of ERK1/2 in PC12 cells, western blot; format: cell-based; settings: 10 µM AuF, normalized to total ERK2, read-out: EC50, lowering of AuF induced activation of ERK1/2
Method: Cells were treated with 10 µM AuF with or without SDA-341. Phosphorylation was determined by western blot analysis (FIG. 6A). The amount of each band was quantitated by densitometry (FIG. 6B) and plotted with a linear regression program normalized to total ERK2 (FIG. 6C).
The ability of SDA-341 to lower AuF induced activation of ERK1/2 in PC12 cells with the corresponding anti ERK1/2 and ERK2 antibodies was also tested, as shown in FIG. 6. Calculated EC50=80µM.

For `CC(=O)NC(CS)C(=O)NC(Cc1cccc(O)c1O)C(N)=O` (stereo not shown) [SDA-341, Acetyle-Cys-2,3 dihydroxyphenylalanine-amide], the “R.R (rotarod), group average” value ([1]; average n=6, day 0 (before treatment)) was 285.17 s, the “R.R (rotarod), group average” value ([1]; average n=6, day 4) was 286.33 s and the “R.R (rotarod), group average” value ([1]; average n=6, day 8) was 266.33 s. For the same compound, the “R.R (rotarod), group average” value ([1]; average n=6, day 10) was 227.00 s, the “R.R (rotarod)” value ([1]; day 0 (before treatment), rotenone 3 mg/kg + compound 33 mg/kg IP) was 278 sec and 300 sec (2×) and 269 sec and 290 sec and the “R.R (rotarod)” value ([1]; day 4) was 298 sec and 274 sec and 263 sec and 300 sec (2×) and 283 sec. The “R.R (rotarod)” value ([1]; day 8) was 281 s and 249 s and 234 s and 277 s and 268 s and 289 s, the “R.R (rotarod)” value ([1]; day 10) was 270 s and 195 s and 123 s and 260 s and 243 s and 271 s and the “rotarod test, motor dysregulation mediated by rotenone” value ([1]; rats, rotenone 3.0 mg/kg IP + compound 33 mg/kg IP, days 1-9) was “significantly reversed”. For the same compound, the EC50 (ERK1/2 phosphorylation) was 80 µM.
